Measured values reported in patent US9315484B2, “Mitochondrial aldehyde dehydrogenase-2 modulators and methods of use thereof” (The Board of Trustees of the Leland Stanford Junior …, priority 2007, dated 2016).
Where a chain is given by its changes, count along the chain named.

Experiments:
[1] = molecular target: T1, "wild-type" ALDH2 enzyme (Homo sapiens, UniProt P05091); experiment: Screen and inhibition assay with wild-type ALDH2 enzyme; assay type: biochemical
T1 sequence (P05091 18-517): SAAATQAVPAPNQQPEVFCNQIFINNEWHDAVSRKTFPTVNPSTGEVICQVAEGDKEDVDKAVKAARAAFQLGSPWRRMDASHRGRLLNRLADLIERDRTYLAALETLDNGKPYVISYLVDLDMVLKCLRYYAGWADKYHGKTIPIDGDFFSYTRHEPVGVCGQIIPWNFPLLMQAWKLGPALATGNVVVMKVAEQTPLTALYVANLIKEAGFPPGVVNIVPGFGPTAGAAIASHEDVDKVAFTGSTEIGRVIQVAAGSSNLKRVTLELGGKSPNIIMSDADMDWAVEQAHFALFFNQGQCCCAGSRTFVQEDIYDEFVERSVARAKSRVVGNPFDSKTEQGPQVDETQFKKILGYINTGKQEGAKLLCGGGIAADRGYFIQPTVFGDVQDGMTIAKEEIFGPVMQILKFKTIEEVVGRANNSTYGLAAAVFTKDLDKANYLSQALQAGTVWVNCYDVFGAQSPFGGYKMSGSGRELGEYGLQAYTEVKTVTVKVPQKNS
Experimental: (§1) Compounds were screened using a method as depicted schematically in FIG. 2. Essentially, the reaction is carried out at 25° C. in 0.1 NaPPi buffer, pH 9.5, 2.4 mM NAD^+ and 10 mM acetaldehyde as the substrate. Enzymatic activity is measured by a reductive reaction of NAD^+ to NADH at 340 nm. Alternatively, the production of NADH can be coupled with another enzymatic reaction that consumes NADH and that provides for a detectable signal. An example of such an enzymatic reaction is a diaphorase-based reaction, which reduces resazurin to its […] fluorescent compound resorufin.
Compounds were screened, as described above, but using the “wild-type” ALDH2 enzyme. Of 63,000 compounds screened, six inhibitors were identified. Three of the compounds, referred to in FIGS. 8, 9, and 10 as #062923, #046072, and #032208, respectively, were assayed for their effect on ALDH2 enzymatic activity.

[2] = molecular target: T2, E487K variant of human ALDH2 (Homo sapiens, UniProt P05091, E504K); experiment: Enzymatic activity of histidine-tagged E487K ALDH2 variant (NAD+ to NADH, acetaldehyde substrate); assay type: biochemical; conditions: over control (without activator compound) activity; n=3
T2 construct: made in house; host or cells: E. coli
T2 sequence (P05091 18-517 E504K): T1 sequence (P05091 18-517) with E487K
Experimental: as §1
For example, a 120 μl reaction mixture for ALDH2 enzymatic activity comprises the following components:
43 μl 150 mM sodium pyrophosphate (NaPPi) buffer, pH 9.0;
15 μl 80 mM acetaldehyde;
1 μl of resazurin (0.2 mg/ml in H2O);
1 μl of diaphorase (1 unit, e.g., from Clostridium kluyveri);
2 μl of variant ALDH2 (e.g., 2 μl of variant ALDH2 at (0.5-2 μg/μl); and
28 μl of a solution comprising an agent to be tested, which agent has been resuspended in an appropriate solvent (e.g., an aqueous solution, DMSO, and the like).
Fluorescent detection of the above-described reaction as described in Table 1:
A fusion protein that includes the E487K variant of human ALDH2 (see amino acid sequence depicted in FIG. 1B) and a poly-histidine tag was synthesized and used in screens for ALDH2 agonists. An expression construct that encodes the […] variant fused in-frame to a poly-histidine (His) tag was introduced into E. coli, and expression was induced by the addition of isopropyl-1-thio-3-D-galactoside (IPTG); and His-tagged E487K ALDH2 variant was produced. The His-tagged E487K ALDH2 variant was purified from E. coli extract using a metal ion affinity column to bind the His-tagged E487K ALDH2 variant. His-tagged E487K ALDH2 variant was eluted from the column and used in screening assays to identify ALDH2 agonists.

[3] = tested on: rat hearts; experiment: Ex vivo Langendorff model of myocardial infarction (no-flow ischemia and reperfusion); conditions: ex vivo rat heart
Experimental: Ex vivo Langendorff preparations of rat hearts were used as a model to assess the damage incurred by no-flow ischemia and reperfusion injury. This is an experimental model that mimics the clinical situation of myocardial infarction in patients. Rat hearts were excised and cannulated on a Langendorff apparatus via the aorta. Retrograde perfusion was carried out using the standard oxygenated Kreb-Hensleit buffer maintained at 37° C. All hearts were stabilized by an initial 5- to 10-minute perfusion period followed by delivery of different cardioprotective agents or AldDH2 inhibitors for 10-30 minutes, depending on the reagent. Reagents used in some of the representative experiments including ethanol (50 mM), EPKC isozyme-selective activator and inhibitor peptides (1 μM), cyanamide (5 mM) and nitroglycerin (2 μM). […]
The degree of ischemia/reperfusion damage was measured by two independent commonly accepted parameters. […] In another assay, creatine phosphate kinase activity was measured from reperfusate of each heart collected during reperfusion. […] Homogenates from each heart was also obtained from a separate section of the identical sample and analyzed for aldehyde dehydrogenase enzymatic activity. Enzymatic activity was determined by a standard spectrophotometric method described above using acetaldehyde as the substrate and NAD^+ as a cofactor.

[4] = tested on: Male Wistar rats; experiment: In vivo LAD coronary artery ligation ischemia/reperfusion model; parameters: species or system rat; conditions: 8.5 mg/kg into the left ventricle five minutes before LAD ligation, p<0.01
Experimental: Male Wistar rats (250-300 g) were anesthetized by 3% isoflurane. The surgical procedures used for left anterior descending coronary artery (LAD) ligation are based on published protocols Animals were intubated, and ventilated with a Harvard rodent ventilator at a rate of 80 breaths per minute (5-15 mm Hg). Maintenance anesthesia was provided via 1% inhalational isoflurane, and body temperature was maintained at 37° C. using a rectal probe linked to a thermocoupled thermometer and an appropriate heating blanket. The heart was exposed by median sternotomy. Following a 20-minute period of stabilization, a ligature was placed around the LAD coronary artery, close to its origin from the aortic root. The ends of the ligature were passed through polyethylene tubing forming a small noose in which a syringe plunger was rested upon the myocardial surface. Coronary occlusion was achieved by pressing the tubing against the plunger while pulling on the ligature followed by clamping the tubing with a hemostat. Occlusion was determined by observation of immediate pallor of the left ventricular free wall. Reflow was achieved by release of the ligature. […]
At the end of reperfusion, hearts were excised and flushed with 0.9% saline. […] Serum was separated by centrifugation at 5000 g for 5 minutes on a tabletop centrifuge and creatine phosphate kinase (CPK) values were determined.

[5] = molecular target: T3, ALDH2*1 wild type enzyme (Homo sapiens, UniProt P05091); experiment: ALDH2 enzymatic assay, ALDH2*1 recombinant enzyme; assay type: biochemical; conditions: for increase in activity of ALDH2*1 wild type enzyme: at the higher concentration (range 10-200 μM), n=3; for ALDH2 activation, dose dependence: range of 10-200 μM
T3 sequence (P05091 18-517): T1 sequence (P05091 18-517)
Experimental: (§2) BDDB derivative compounds, XO43 and XO44 as depicted in FIG. 12, were synthesized and tested in ALDH2 enzymatic assays. […] Enzymatic activity was measured by a reductive reaction of NAD^+ to NADH at 340 nm, as described in US 2005/0171043; and WO 2005/057213. […] (FIG. 12: n=3 for both right and left panels.)

[6] = molecular target: T4, ALDH2*2 mutant enzyme (Homo sapiens, UniProt P05091, E504K); experiment: ALDH2 enzymatic assay, ALDH2*2 recombinant enzyme; assay type: biochemical; conditions: range of 10-200 μM
T4 sequence (P05091 18-517 E504K): T1 sequence (P05091 18-517) with E487K
Experimental: as §2

SMILES	IC50 [1] [nM]	increase of enzymatic activity of the E487K ALDH2 variant over control [2]	increase in activity of ALDH2*1 wild type enzyme [5]	ALDH2 activation, dose dependence [5]	ALDH2 activation, dose dependence [6]	other results
O=C(Nc1nc2c(Cl)c(Cl)ccc2s1)c1cccnc1 [#032208]	1620					
CCc1ccc(C(=O)CCN(C)C)cc1 [#046072]	1140					
COc1ccc(C(=O)CCN(C)C)cc1F [#062923]	630					
O=C(NCc1ccc2c(c1)OCO2)c1c(Cl)cccc1Cl [Compound 1, N-(1,3-benzodioxol-5-ylmethyl)-2,6-dichlorobenzamide]		approximately 900%	about 180%	dosage dependent effect	dosage dependent effect	infarct size ([3]; ischemia-reperfusion, control 57.7±5.4%, p<0.05, n=7): 41.6±4.1%; CPK release ([3]; reperfusate, control 5530±329, P<0.05, n=8): 4396 Units/Liter; decrease of CPK release ([4]; rat blood): about 57%; decrease of the extent of myocardial infarction ([4]; rat): about 60%
O=C(NCc1ccc2c(c1)OCO2)c1c(F)cccc1F [Compound 2, N-(1,3-benzodioxol-5-ylmethyl)-2,6-difluorobenzamide]		approximately 300%				
O=C(NCc1ccc2c(c1)OCO2)c1ccccc1Br [Compound 3, N-(1,3-benzodioxol-5-ylmethyl)-2-bromobenzamide]		~600%				
O=C(NCc1ccc2c(c1)OCO2)c1ccccc1I [Compound 4, N-(1,3-benzodioxol-5-ylmethyl)-2-iodobenzamide]		~700%				
O=C(NCc1ccc2c(c1)OCO2)c1c(Cl)cncc1Cl [XO43]			about 180%	dosage dependent effect	dosage dependent effect	
Cc1cccc(C)c1C(=O)NCc1ccc2c(c1)OCO2 [XO44]			about 180%	dosage dependent effect	dosage dependent effect	
